Experimental data as given in patent US20110003866A1, “NOVEL 2-DIMETHYLAMINO-3-AMIDO-6-AMINO-PYRIDINE DERIVATIVES USEFUL AS POTASSIUM CHANNEL ACTIVATORS” (priority 2007, published 2011).

Molecular target: T1, human Kv72+3 channels (Homo sapiens, UniProt O43525+O43526)
T1 construct: expressed in transfected cells; host or cells: HEK293
Test: patch-clamp, HEK293 cell lines stably expressing human Kv7.2+3 channels
Type: cell-based
Settings: conc. 0.03 μM, −30 mV, 20 ms; current relative to baseline current defined as 100%
Excerpt: The effect obtained by these channel activators is described as a percentage increase in baseline current at a given concentration. The baseline current is defined as 100%, and an increase in current is expressed relative to this, i.e. an increase from 1 nA to 1.2 nA is reported as 120%.

IK (%) | Compound
215% | CN(C)c1nc(NCc2ccc(F)cc2)ccc1NC(=O)Cc1ccc(F)c(F)c1 [Compound 1, N-[2-Dimethylamino-6-(4-fluoro-benzylamino)-pyridin-3-yl]-2-(3,4-difluoro-phenyl)-acetamide]
233% | CN(C)c1nc(NCc2ccc(F)cc2)ccc1NC(=O)CC(C)(C)C [Compound 8, N-[2-Dimethylamino-6-(4-fluoro-benzylamino)-pyridin-3-yl]-3,3-dimethyl-butyramide]
162% | CN(C)c1nc(NCc2ccc(F)cc2)ccc1NC(=O)Cc1ccc(C(F)(F)F)c(F)c1 [Compound 3, N-[2-Dimethylamino-6-(4-fluoro-benzylamino)-pyridin-3-yl]-2-(3-fluoro-4-trifluoromethyl-phenyl)-acetamide]
174% | CN(C)c1nc(NCc2ccc(F)cc2)ccc1NC(=O)CCc1cccc(F)c1 [Compound 5, N-[2-Dimethylamino-6-(4-fluoro-benzylamino)-pyridin-3-yl]-3-(3-fluoro-phenyl)-propionamide]
